One experiment relates to Anopheles albimanus. In words: Olfactometer attraction test of compounds and compositions. Type of experiment: in vivo.
The test system of experiment [1] is Aedes aegypti. In words: Olfactometer attraction test, treatment port vs control port, approximately 75 female mosquitoes. The experiment is classed as in vivo. The note with it: for Acetone Avg response: average of n = 4 trials, 500 μL from a 60 mm diameter glass petri dish; for LA Avg response: average of n = 51 trials, 200 μL of 1 μg/μL methanolic solution.
Experimental: (§1) The tests were conducted in an olfactometer (55 ft^3/min airflow, 80° F., 60% R.H.) as described by Posey, J. Med. Entomol., 35, 330-334 (1998); and LA is lactic acid. Mosquitoes were allowed to settle at least one hour prior to testing. The olfactometer was cleaned after each battery of tests. Each battery consisted of three tests, conducted at 08:30, 11:00 and 13:00 hours local time. Each of the three tests was conducted in a separate cage. The control consisted of identical sample delivery devices and conditions compared to that of the treatment side. Both the treatment and control ports were opened and closed simultaneously when inserting a new treatment/control.
A further experiment has as its system Aedes albopictus. In words: Olfactometer attraction test of compounds and compositions. Type of experiment: in vivo. The note with it: single substance. The source says: The olfactometer was cleaned after each battery of tests.
The test system of experiment [2] is Aedes aegypti. Description: Formulation and verification of the best blend: one treatment vs another treatment in the olfactometer. The conditions noted are these: 200 μg L-lactic acid (1w) vs. 200 μg L-lactic acid (1w) + Acetone (3B).
Experimental: as §1

Molecules are shown by their SMILES. “And” between values parts separate entries of the source, which are not always exact repeats. Equal entries are not always repeated.

On to `CC(C)=O` [acetone], for which the “% caught” value in the experiment on Anopheles albimanus (single treatment, 500 μL) was 29.6%; in the experiment on Aedes albopictus (500 μL Dish), 9.1%. Moreover, the “Acetone Avg response” value with Aedes aegypti [1] is recorded as 51%; in the experiment on Aedes aegypti [1] (listed as Acetone), “Acetone Avg: 203/4 = 51%, n = 4 trials”. Also, the “Response with L-LA (%), average in parentheses” value in the experiment on Aedes aegypti [1] (compound 500 μL with L-lactic acid, average of the trials) is on record as “(88%)”. In addition, in the experiment with Aedes aegypti [1] (compound alone 500 μL, average of the trials), the “Response (%), average in parentheses” value is listed as “(51%)”. Moreover, in the experiment with Aedes aegypti [1] (difference between response with L-lactic acid and response alone), the “Δ [(Resp with LA) − Resp] (%)” value is recorded as 37%. Besides, the “Acetone response (%)” value with Aedes aegypti [1] (single trials, 500 μL, plated on a small petri dish) is 51% and 48% and 53%.

With `C[C@H](O)C(=O)O` [L-lactic acid], the “% mosquitoes trapped, treatment vs treatment” value in the experiment on Aedes aegypti [2] is on record as 8%. For the same molecule, the “% caught” value is 1.3% with Anopheles albimanus (single substance, 400 μg dish); 11.7% and 8.3% in the experiment with Aedes albopictus (200 μg, listed as LA). Besides, the “LA Avg response” value is recorded as 26% in the experiment with Aedes aegypti [1] and “LA Avg: 1303/51 = 26%, n = 51 trials” in the experiment with Aedes aegypti [1] (listed as LA). In the experiment with Aedes aegypti [1] (base compound alone (mode of action similar to lactic acid)), the “Response (%)” value came to 26%. In addition, in the experiment with Aedes aegypti [1] (base compound together with acetone), the “Response with Ace (%)” value came to 88%. Further, the “Δ [(Resp with Ace) − Resp] (%)” value in the experiment on Aedes aegypti [1] (difference between response with acetone and response alone) is given as 62%. In addition, the “L-lactic acid response (%)” value with Aedes aegypti [1] (single trials, 200 μL of a 1 μg/1 μL methanolic solution, dried 3 minutes in a petri dish, percentage caught of 75 female mosquitos) amounted to 27%.

Source of the values: patent US7771713B2, “Chemical composition that attract arthropods” (priority 1999, dated 2010).
